Assay results from PubChem BioAssay (NCI).
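All cell lines were grown in 96-well plates and treated with compound for 48 hours. Here, GI50 denotes the concentration required for 50% inhibition of growth. The concentration for full growth arrest is given as TGI.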

What was measured:
Test in all cases: growth of human tumour cells (NCI), 48 h
UO-31 renal = tested on: UO-31 renal
SK-MEL-28 melanoma = tested on: SK-MEL-28 melanoma
CCRF-CEM leukemia = tested on: CCRF-CEM leukemia
NCI-H23 lung = tested on: NCI-H23 lung
U251 CNS = tested on: U251 CNS
SNB-75 CNS = tested on: SNB-75 CNS
HOP-62 NSCLC = tested on: HOP-62 NSCLC
MDA-MB-231 breast = tested on: MDA-MB-231 breast
MDA-MB-435 = tested on: MDA-MB-435
ACHN renal = tested on: ACHN renal
UACC-257 melanoma = tested on: UACC-257 melanoma
OVCAR-8 ovarian = tested on: OVCAR-8 ovarian
NCI-H460 lung = tested on: NCI-H460 lung
SK-OV-3 ovarian = tested on: SK-OV-3 ovarian
OVCAR-3 ovarian = tested on: OVCAR-3 ovarian
RXF 393 renal = tested on: RXF 393 renal
KM12 colon = tested on: KM12 colon
SNB-19 CNS = tested on: SNB-19 CNS
SK-MEL-5 melanoma = tested on: SK-MEL-5 melanoma
T-47D breast = tested on: T-47D breast
HCT-116 colon = tested on: HCT-116 colon
A498 renal = tested on: A498 renal
SK-MEL-2 melanoma = tested on: SK-MEL-2 melanoma
HS 578T breast = tested on: HS 578T breast
HT29 colon = tested on: HT29 colon
SF-295 CNS = tested on: SF-295 CNS
EKVX NSCLC = tested on: EKVX NSCLC
M14 melanoma = tested on: M14 melanoma
MOLT-4 leukemia = tested on: MOLT-4 leukemia
NCI-H522 lung = tested on: NCI-H522 lung
SR leukemia = tested on: SR leukemia
BT-549 breast = tested on: BT-549 breast
HOP-92 NSCLC = tested on: HOP-92 NSCLC
COLO 205 colon = tested on: COLO 205 colon
786-0 renal = tested on: 786-0 renal
MALME-3M melanoma = tested on: MALME-3M melanoma
HCC-2998 colon = tested on: HCC-2998 colon
K-562 leukemia = tested on: K-562 leukemia
IGROV1 ovarian = tested on: IGROV1 ovarian
LOX IMVI melanoma = tested on: LOX IMVI melanoma
SN12C renal = tested on: SN12C renal
CAKI-1 renal = tested on: CAKI-1 renal
HL-60(TB) leukemia = tested on: HL-60(TB) leukemia
DU-145 prostate = tested on: DU-145 prostate
MCF7 breast = tested on: MCF7 breast
HCT-15 colon = tested on: HCT-15 colon
TK-10 renal = tested on: TK-10 renal
SF-539 CNS = tested on: SF-539 CNS
UACC-62 melanoma = tested on: UACC-62 melanoma
SF-268 CNS = tested on: SF-268 CNS
A549 NSCLC = tested on: A549 NSCLC
SW-620 colon = tested on: SW-620 colon
NCI/ADR-RES ovarian = tested on: NCI/ADR-RES ovarian
NCI-H226 lung = tested on: NCI-H226 lung
RPMI-8226 leukemia = tested on: RPMI-8226 leukemia
OVCAR-5 ovarian = tested on: OVCAR-5 ovarian
OVCAR-4 ovarian = tested on: OVCAR-4 ovarian
PC-3 prostate = tested on: PC-3 prostate

## O=c1oc2ccc(F)cc2c(=O)n1-c1ccc(F)cc1F
UO-31 renal
  GI50: 1.93 µM
  TGI: 6.56 µM
SK-MEL-28 melanoma
  GI50: 2.79 µM
  TGI: 11.7 µM
CCRF-CEM leukemia
  GI50: 3.95 µM
  TGI: 67.4 µM
NCI-H23 lung
  GI50: 2.96 µM
  TGI: 19.7 µM
U251 CNS
  GI50: 3.26 µM
  TGI: 38.8 µM
SNB-75 CNS
  GI50: 1.58 µM
  TGI: 5.43 µM
HOP-62 NSCLC
  GI50: 2.39 µM
  TGI: 8.05 µM
MDA-MB-231 breast
  GI50: 2.3 µM
  TGI: 6.99 µM
MDA-MB-435
  GI50: 3.21 µM
  TGI: 14.6 µM
ACHN renal
  GI50: 2.71 µM
  TGI: 8.63 µM
UACC-257 melanoma
  GI50: 2.29 µM
  TGI: 7.15 µM
OVCAR-8 ovarian
  GI50: 3.39 µM
  TGI: 91.6 µM
NCI-H460 lung
  GI50: 3.42 µM
  TGI: 62.4 µM
SK-OV-3 ovarian
  GI50: 1.72 µM
  TGI: 4.6 µM
OVCAR-3 ovarian
  GI50: 3.26 µM
  TGI: 27.7 µM
RXF 393 renal
  GI50: 2.52 µM
  TGI: 6.99 µM
KM12 colon
  GI50: 3.38 µM
  TGI: 14 µM
SNB-19 CNS
  GI50: 3.5 µM
  TGI: > 100 µM
SK-MEL-5 melanoma
  GI50: 1.76 µM
  TGI: 3.69 µM
T-47D breast
  GI50: 2.28 µM
  TGI: 7.08 µM
HCT-116 colon
  GI50: 2.86 µM
  TGI: 9.6 µM
A498 renal
  GI50: 1.62 µM
  TGI: 3.91 µM
SK-MEL-2 melanoma
  GI50: 1.98 µM
  TGI: 5.04 µM
HS 578T breast
  GI50: 2.59 µM
  TGI: 8.51 µM
HT29 colon
  GI50: 3.91 µM
  TGI: 49.8 µM
SF-295 CNS
  GI50: 2.33 µM
  TGI: 5.58 µM
EKVX NSCLC
  GI50: 2.54 µM
  TGI: 9.79 µM
M14 melanoma
  GI50: 2.47 µM
  TGI: 8.04 µM
MOLT-4 leukemia
  GI50: 3.46 µM
  TGI: > 100 µM
NCI-H522 lung
  GI50: 2.61 µM
  TGI: 12.3 µM
SR leukemia
  GI50: 3.69 µM
  TGI: > 100 µM
BT-549 breast
  GI50: 2.53 µM
  TGI: 7.4 µM
HOP-92 NSCLC
  GI50: 1.6 µM
  TGI: 4.68 µM
COLO 205 colon
  GI50: 3.56 µM
  TGI: 12.5 µM
786-0 renal
  GI50: 3.13 µM
  TGI: 11.4 µM
MALME-3M melanoma
  GI50: 2.25 µM
  TGI: 6.33 µM
HCC-2998 colon
  GI50: 3.9 µM
  TGI: 27.7 µM
K-562 leukemia
  GI50: 3.11 µM
  TGI: > 100 µM
IGROV1 ovarian
  GI50: 3.01 µM
  TGI: > 100 µM
LOX IMVI melanoma
  GI50: 3.79 µM
  TGI: 22 µM
SN12C renal
  GI50: 2.72 µM
  TGI: 13.7 µM
CAKI-1 renal
  GI50: 1.98 µM
  TGI: 6.4 µM
HL-60(TB) leukemia
  GI50: 2.68 µM
  TGI: 7.81 µM
DU-145 prostate
  GI50: 4.18 µM
  TGI: > 100 µM
MCF7 breast
  GI50: 2.87 µM
  TGI: > 100 µM
HCT-15 colon
  GI50: 3.36 µM
  TGI: 17.5 µM
TK-10 renal
  GI50: 5.07 µM
  TGI: 36.9 µM
SF-539 CNS
  GI50: 3.31 µM
  TGI: 13.8 µM
UACC-62 melanoma
  GI50: 2.02 µM
  TGI: 7.52 µM
SF-268 CNS
  GI50: 3.34 µM
  TGI: 52.1 µM
A549 NSCLC
  GI50: 3.35 µM
  TGI: > 100 µM
SW-620 colon
  GI50: 3.33 µM
  TGI: 80.6 µM
NCI/ADR-RES ovarian
  GI50: 3.24 µM
  TGI: > 100 µM
NCI-H226 lung
  GI50: 2.82 µM
  TGI: 72.9 µM
RPMI-8226 leukemia
  GI50: 2.22 µM
  TGI: 7.09 µM
OVCAR-5 ovarian
  GI50: 3.46 µM
  TGI: > 100 µM
OVCAR-4 ovarian
  GI50: 3.02 µM
  TGI: 30.2 µM
PC-3 prostate
  GI50: 2.81 µM
  TGI: 10.1 µM
